Measured values from PubChem BioAssay (NCI).
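Following 48 hours of exposure in 96-well plates, responses at five concentrations were used to interpolate endpoints linearly. TGI marks complete inhibition of growth.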

Key:
Assay in all cases: DTP human tumour cell line panel, 48 h
[1] = test system: SK-MEL-28 melanoma
[2] = test system: KM12 colon
[3] = test system: ACHN renal
[4] = test system: OVCAR-8 ovarian
[5] = test system: HOP-92 NSCLC
[6] = test system: MDA-N
[7] = test system: IGROV1 ovarian
[8] = test system: A549 NSCLC
[9] = test system: BT-549 breast
[10] = test system: SF-268 CNS
[11] = test system: NCI-H23 lung
[12] = test system: SK-MEL-2 melanoma
[13] = test system: DU-145 prostate
[14] = test system: A498 renal
[15] = test system: K-562 leukemia
[16] = test system: M14 melanoma
[17] = test system: T-47D breast
[18] = test system: TK-10 renal
[19] = test system: SK-OV-3 ovarian
[20] = test system: SK-MEL-5 melanoma
[21] = test system: UO-31 renal
[22] = test system: RPMI-8226 leukemia
[23] = test system: CAKI-1 renal
[24] = test system: HCT-15 colon
[25] = test system: SN12C renal
[26] = test system: SNB-75 CNS
[27] = test system: NCI/ADR-RES ovarian
[28] = test system: SNB-19 CNS
[29] = test system: RXF 393 renal
[30] = test system: MALME-3M melanoma
[31] = test system: NCI-H460 lung
[32] = test system: OVCAR-4 ovarian
[33] = test system: MDA-MB-435
[34] = test system: U251 CNS
[35] = test system: 786-0 renal
[36] = test system: OVCAR-3 ovarian
[37] = test system: UACC-257 melanoma
[38] = test system: EKVX NSCLC
[39] = test system: HCT-116 colon
[40] = test system: SR leukemia
[41] = test system: OVCAR-5 ovarian
[42] = test system: SF-295 CNS
[43] = test system: HS 578T breast
[44] = test system: COLO 205 colon
[45] = test system: UACC-62 melanoma
[46] = test system: PC-3 prostate
[47] = test system: SF-539 CNS
[48] = test system: HOP-62 NSCLC
[49] = test system: NCI-H522 lung
[50] = test system: MCF7 breast
[51] = test system: HT29 colon
[52] = test system: NCI-H226 lung
[53] = test system: SW-620 colon
[54] = test system: MDA-MB-231 breast
[55] = test system: CCRF-CEM leukemia
[56] = test system: LOX IMVI melanoma
[57] = test system: HCC-2998 colon
[58] = test system: MOLT-4 leukemia

Measured: TGI

Cc1ncc([N+](=O)[O-])n1CCN=[N+]=[N-]
> 100 µM: [1] | [2] | [3] | [4] | [5] | [6] | [7] | [8] | [9] | [10] | [11] | [12] | [13] | [14] | [15] | [16] | [17] | [18] | [19] | [20] | [21] | [22] | [23] | [24] | [25] | [26] | [27] | [28] | [29] | [30] | [31] | [32] | [33] | [34] | [35] | [36] | [37] | [38] | [39] | [40] | [41] | [42] | [43] | [44] | [45] | [46] | [47] | [48] | [49] | [50] | [51] | [52] | [53] | [54]

COc1ccc(N2C(=O)C3c4[nH]c5ccc(C)cc5c4C4CCC(C(C)C)CC4C3C2=O)cc1 (centres undefined)
> 100 µM: [1] | [2] | [3] | [55] | [4] | [5] | [6] | [56] | [7] | [8] | [9] | [10] | [11] | [12] | [13] | [14] | [15] | [16] | [17] | [18] | [19] | [20] | [21] | [22] | [23] | [24] | [25] | [57] | [27] | [28] | [31] | [32] | [33] | [34] | [35] | [36] | [37] | [38] | [39] | [40] | [41] | [42] | [58] | [43] | [44] | [45] | [46] | [48] | [49] | [50] | [51] | [52] | [53] | [54]
74.2 µM: [26]
